What was measured:
Assay type in all cases: in vivo, mouse
[1] = tested on: Mbnl2 mRNA; assay: Mbnl2 transcript levels in muscle by qRT-PCR; settings: HSALR mice, 9.2 mg/kg (mean) i.v. every 2 weeks x3, day 45; gastrocnemius, vs PBS-treated HSALR
Procedure: Total RNA from murine gastrocnemius and quadriceps muscle was isolated using the miRNeasy Mini Kit (QIAGEN, Hilden, Germany) according to the manufacturer's instructions. One microgram of RNA was digested with DNase I (Invitrogen, Carlsbad, CA) and reverse transcribed with SuperScript II (Invitrogen) using random hexanucleotides. For subsequent PCR reactions, 20 ng of cDNA was used with GoTaq polymerase (Promega). Specific primers were used to analyze the alternative splicing of Nfix, Atp2a1, and Clcn1 in mouse samples (both muscles). Gapdh levels established the endogenous reference levels using 0.2 ng of cDNA. […] PSR index was defined as value%SI minus X %DSI , divided by […] (SI, splicing inclusion of each sample; DSI, disease splicing inclusion; HSI, healthy splicing inclusion). Overall, PSR indicates the amount in both muscles analyzed. […] Commercial TaqMan probes (QIAGEN) were used for mouse (Mbnl1 and Mbnl2; FAM-labeled probes) and reference (GAPDH; MAX-labeled probe) genes. Results were normalized to Gapdh endogenous gene expression. Expression levels were measured using a QuantStudio 5 Real-Time PCR System (Applied Biosystems, Foster City, CA). […] Mouse handling and experimental procedures followed the European law regarding laboratory animal care and experimentation (2003/65/C.E.) and were approved by Conselleria de Agricultura, […] […]

[2] = tested on: HSALR mice; assay: Electromyography, myotonia grade; settings: 9.2 mg/kg (mean) i.v. every 2 weeks x3, 5-point scale, quadriceps of both hind limbs
Text: (§1) Mouse handling and experimental procedures followed the European law regarding laboratory animal care and experimentation (2003/65/C.E.) and were approved by Conselleria de Agricultura, […] (reference no. A1539961490857). We used homozygous transgenic HSA^LR (line 20 b) mice,[90] which were kindly provided by Dr Thornton (Rochester, NY) and were housed and bred in our animal facility. […] The mice were randomly allocated to the different treatments as follows: in each cage, each mouse was ear-marked as it was taken out, and each mouse was then assigned to a different treatment. Animals were injected biweekly intravenously with 150 μL of 1× PBS vehicle (controls; […] Mice were sacrificed 45 days after the first injection and the tissues of interest were frozen in liquid nitrogen for the molecular and histological assays. All the mice used in this study ranged from 5 to 5.5 months of age and all were males. Electromyography was performed before the treatment, at the halfway point and time of sacrifice under general anesthesia, as described previously.[18] The determination was performed blindly to eliminate bias.

[3] = tested on: HSALR mice; assay: Histology, percentage of muscle fibers with central nuclei; settings: 9.2 mg/kg (mean) i.v. every 2 weeks x3, day 45
Text: Mouse handling and experimental procedures followed the European law regarding laboratory animal care and experimentation (2003/65/C.E.) and were approved by Conselleria de Agricultura, Generalitat Valenciana (reference no. A1539961490857). We used homozygous transgenic HSA^LR (line 20 b) mice,[90] which were kindly provided by Dr Thornton (Rochester, NY) and were housed and bred in our animal facility. Experimental groups were FVB as healthy control and HSA^LR treated with a scrambled ON (SC) and PBS as negative controls, and HSA^LR mice treated with all six experimental CPP-PMOs. The mice were randomly allocated to the different treatments as follows: in each cage, each mouse was ear-marked as it was taken out, and each mouse was then assigned to a different treatment. […]
Frozen 15-μm sections of mouse gastrocnemius and quadriceps muscles were stained with hematoxylin and eosin and mounted with DPX Mountant for histology (Sigma) according to standard procedures. […] The percentage of fibers containing central nuclei was quantified in a total of 200 fibers in each mouse.

[4] = tested on: miR-23b; assay: Functional miR-23b levels in gastrocnemius and quadriceps by qRT-PCR; settings: HSALR mice, 9.2 mg/kg (mean) i.v. every 2 weeks x3, day 45, vs PBS-treated HSALR
Procedure: as §1, with “miRNA expression in muscle tissues was quantified using specific miRCURY-locked nucleic acid microRNA PCR primers (QIAGEN) according to the manufacturer's instructions. […] Expression levels were measured using a QuantStudio 5 Real-Time PCR System (Applied Biosystems, Foster City, CA). […] Mouse” for “Mouse”, “males.” for “males. Electromyography was performed before the treatment, at the halfway point and time of sacrifice under general anesthesia, as described previously.[18] The determination was performed blindly to eliminate bias.”

[5] = tested on: miR-218; assay: Functional miR-218 levels in gastrocnemius and quadriceps by qRT-PCR; settings: HSALR mice, 9.2 mg/kg (mean) i.v. every 2 weeks x3, day 45, vs PBS-treated HSALR
Procedure: as §1, with “miRNA expression in muscle tissues was quantified using specific miRCURY-locked nucleic acid microRNA PCR primers (QIAGEN) according to the manufacturer's instructions. […] Expression levels were measured using a QuantStudio 5 Real-Time PCR System (Applied Biosystems, Foster City, CA). […] Mouse” for “Mouse”, “males.” for “males. Electromyography was performed before the treatment, at the halfway point and time of sacrifice under general anesthesia, as described previously.[18] The determination was performed blindly to eliminate bias.”

| Substance | relative expression of Mbnl2 [1] | myotonia (electromyography), change at day 45 [2] | muscle fibers with central nuclei vs PBS-injected mice [3] | levels of functional miR-23b [4] | levels of functional miR-218 [5] |
| --- | --- | --- | --- | --- | --- |
| 9b2KC-23b (antisense GGUAAUCCCUGGCAAUGUGAU; all phosphorodiamidate morpholino (PMO), T or U not given here; Pip9b2KC peptide conjugated) | 2.65 fold | – | – | – | – |
| TCTTACCTCAGTTACAATTTA-Pip9b2 [Scramble, reference compound] | – | myotonia remained unchanged | did not differ significantly from PBS-injected ones | did not reduce functional levels | did not reduce functional levels |
